Like-named read-outs stand apart in the source and are kept apart here.
Assays:
A2780 cells = assay: Cytotoxicity (SRB colorimetric assay) on A2780 cells; format: cell-based; conditions: 72 h incubation, concentration inhibiting cell proliferation by 50%
Experimental: (§1) A2780 cells (2000/well) were seeded in multiwell plates (96 wells) in the presence of 200 μl of the complete medium RPMI 1640+10% FCS. After 24 h, the cells were treated with the compounds: the compounds' solution (200×) was prepared in DMSO 100% and 1 μl/well was added. 5 scalar concentrations for each compound were tested in four replicates. The cells were incubated at 37° C., 5% CO2 for 72 h.
(§2) Colorimetric assay (SRB: sulforhodamine B): cell cultures were fixed with trichloroacetic acid, stained with 0.4% SRB dissolved in 1% acetic acid. Unbound dye was removed by four washes with 1% acetic acid and protein-bound dye was extracted with 10 mM Tris base for determination of optical density in a 96-well microtiter plate reader. IC50 and IC90 (concentration inhibiting cell proliferation by 50 or 90%) were determined by data analysis in the Microsoft Excel 97 program.

[1] = system: Human colon carcinoma HCT116 cells; assay: Cytotoxicity on HCT116 tumor cell line; format: cell-based
Pig brain tubulin = biological target: T1, Pig brain tubulin (Sus scrofa, UniProt P02554); assay: Microtubule assembly and disassembly assay (tubulin polymerizing activity); format: biochemical; conditions: 0.5 mg/ml tubulin, 37° C., turbidity at 340 nm; for EC50: effective dose that induces 50% tubulin polymerisation, read-out: ED50 (the source's name); for ED90: effective dose that induces 90% tubulin polymerisation
T1 construct: Pig brain tubulin was prepared by two cycles of assembly and disassembly; from tissue; host or cells: pig brain
Experimental: Pig brain tubulin was prepared by two cycles of assembly and disassembly and it was stored in liquid nitrogen in Microtubule Assembly Buffer (MAB: 0.1 M MES, 2.5 mM EGTA, 0.5 mM MgSO4, 0.1 mM EDTA, 0.1 mM DTT pH 6.4). Assembly was monitored by the method of Gaskin et al. (Gaskin F, Cantor C R, Shelanski M L, 1974,: Turbidimetric studies of the in vitro assembly and disassembly of porcine neurotubules. J. Mol. Biol. 89: 737-758). The cuvette (1 cm path) containing 0.5 mg/ml tubulin and 1 mM GTP was shifted to 37° C. and continuous turbidity measurements were made at 340 nm on a spectrophotometer equipped with an automatic recorder and a thermostatically regulated sample chamber. After 30 min CaCl2 (5 mM) was added and disassembly was monitored for 10 mm as decreased turbidity. Scalar doses of test compounds were monitored at regular intervals of 15 min.
(ED50 and ED90) was calculated on this curve.

[2] = system: Human colon carcinoma HT29 cells; assay: Cytotoxicity on HT29 tumor cell line; format: cell-based
Experimental: as §1, §2
Human colon carcinoma HT29 cells were also used to study the cytotoxicity of the compounds of the present invention.

T1 sequence (P02554 whole entry): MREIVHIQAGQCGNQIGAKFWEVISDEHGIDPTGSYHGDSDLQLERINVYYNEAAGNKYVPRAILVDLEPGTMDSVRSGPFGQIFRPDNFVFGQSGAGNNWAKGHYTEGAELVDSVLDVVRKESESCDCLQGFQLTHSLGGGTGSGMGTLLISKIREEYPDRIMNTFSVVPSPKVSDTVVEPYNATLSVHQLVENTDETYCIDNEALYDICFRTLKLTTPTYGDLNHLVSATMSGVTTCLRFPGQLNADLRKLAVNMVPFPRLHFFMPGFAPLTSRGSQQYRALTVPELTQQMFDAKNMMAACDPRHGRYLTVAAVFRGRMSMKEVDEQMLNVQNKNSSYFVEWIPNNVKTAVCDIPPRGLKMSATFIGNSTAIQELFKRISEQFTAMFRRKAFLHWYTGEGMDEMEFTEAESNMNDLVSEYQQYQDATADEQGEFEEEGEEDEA
T1 sequence (P02550 whole entry partner): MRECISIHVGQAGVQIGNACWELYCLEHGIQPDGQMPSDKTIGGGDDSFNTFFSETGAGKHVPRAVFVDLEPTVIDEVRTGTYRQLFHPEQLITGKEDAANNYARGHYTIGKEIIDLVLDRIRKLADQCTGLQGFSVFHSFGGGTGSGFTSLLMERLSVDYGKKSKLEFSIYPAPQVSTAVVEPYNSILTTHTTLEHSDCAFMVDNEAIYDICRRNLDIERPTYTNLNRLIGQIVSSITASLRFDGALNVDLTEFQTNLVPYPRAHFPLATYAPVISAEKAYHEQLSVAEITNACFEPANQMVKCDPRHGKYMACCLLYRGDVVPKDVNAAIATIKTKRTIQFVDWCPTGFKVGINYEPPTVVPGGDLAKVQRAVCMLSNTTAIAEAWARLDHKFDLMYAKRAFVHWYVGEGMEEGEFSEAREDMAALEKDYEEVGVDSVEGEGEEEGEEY

## CC(=O)O[C@@H]1C/C=C\C[C@@H](OC(=O)/C=C/c2cn(C)cn2)C[C@H]2C(C)=CC[C@H](C(C)C)[C@H]2C1 [Example 12, 3-(1-Methyl-1H-imidazol-4-yl)-acrylic acid 11-acetoxy-1-isopropyl-4-methyl-1,2,4a,5,6,7,10,11,12,12a-decahydro-benzocyclodecen-6-yl ester]
A2780 cells; Homo sapiens
  IC50: 4 µM
[1]; Homo sapiens, HCT-116
  IC50: 12 µM
Pig brain tubulin
  EC50: 2 µM
  ED90: 10.0 µM

## CC1=CC[C@H](C(C)C)[C@H]2CC(=O)C/C=C\C[C@@H](OC(=O)/C=C/c3cn(C)cn3)C[C@@H]12 [Example 16, (E)-3-(1-Methyl-1H-imidazol-4-yl)-acrylic acid [(1R,4aR,6R,12aR)-1-isopropyl-4-methyl-11-oxo-1,2,4a,5,6,7,10,11,12,12a-decahydro-benzocyclodecen-6-enyl]ester]
A2780 cells; Homo sapiens
  IC50: 40 µM
[1]; Homo sapiens, HCT-116
  IC50: 35 to 60 µM
[2]; Homo sapiens, HT-29
  IC50: 30 µM
Pig brain tubulin
  EC50: 0.2 µM
  ED90: 1.2 µM

## C=C1C/C=C\C[C@@H](OC(=O)/C=C/c2cn(C)cn2)C[C@H]2C(C)=CC[C@H](C(C)C)[C@H]2C1 [Example 19]
A2780 cells; Homo sapiens
  IC50: 4 µM
[1]; Homo sapiens, HCT-116
  IC50: 5 µM
[2]; Homo sapiens, HT-29
  IC50: 6 µM
Pig brain tubulin
  EC50: 5 µM
  ED90: 16.0 µM

## CO[C@H]1C=CC[C@@H](OC(=O)/C=C/c2cn(C)cn2)C[C@H]2C(C)=CC[C@H](C(C)C)[C@H]2C[C@@H]1OC(=O)C(C)(C)C [Example 27, (E)-3-(1-Methyl-1H-imidazol-4-yl)-acrylic acid [(1R,4aR,6R,10S,11S,12aR)-11-(2,2-dimethyl-propionyloxy)-1-isopropyl-10-methoxy-4-methyl-1,2,4a,5,6,7,10,11,12,12a-decahydro-benzocyclodecen-6-yl}ester]
A2780 cells; Homo sapiens
  IC50: < 5 µM
[1]; Homo sapiens, HCT-116
  IC50: 10 to 25 µM
[2]; Homo sapiens, HT-29
  IC50: 7 µM
Pig brain tubulin
  EC50: 3 µM

## CC(=O)O[C@H]1C=CC[C@@H](OC(=O)/C=C/c2cn(C)cn2)C[C@H]2C(C)=CC[C@H](C(C)C)[C@H]2C[C@@H]1OC(=O)C(C)(C)C [Example 30, (E)-3-(1-Methyl-1H-imidazol-4-yl)-acrylic acid [(1R,4aR,6R,10S,11S,12aR)-10-acetoxy-11-(2,2-dimethyl-propionyloxy)-1-isopropyl-4-methyl-1,2,4a5,6,7,10,11,12,12a-decahydro-benzocyclodecen-6-yl]ester]
Pig brain tubulin
  EC50: 1 µM
  ED90: 1.7 µM

## CC1=CC[C@H](C(C)C)[C@H]2C[C@H](OC(=O)C(C)(C)C)[C@@H](O)C=CC[C@@H](OC(=O)C=Cc3cn(C)cn3)C[C@@H]12 [Example 34, 3-(1-Methyl-1H-imidazol-4-yl)-acrylic acid [(1R,4aR,6R,10S,10S,12aR)-11-(2,2-dimethyl-propionyloxy)-10-hydroxy-1-isopropyl-4-methyl-1,2,4a,5,6,7,10,11,12,12a-decahydro-benzocyclodecen-6-yl}ester]
A2780 cells
  IC50: 4 µM
[1]
  IC50: 4 µM
[2]
  IC50: 5 µM
Pig brain tubulin
  EC50: 1 µM
  ED90: 1.8 µM

From patent US20050038112A1, “Simplified sarcondictyn derivatives as anti-tumor agents” (priority 2001, published 2005)
